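Interpolation was linear, between the two tested concentrations surrounding the appropriate level; five concentrations were tested over 48 hours in 96-well plates. Here, GI50 denotes the concentration required for 50% inhibition of growth.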 Activity calls are given as the source filed them. No stated cut-off is given here; in the data, active = GI50 up to about 1.1 µM and inactive = higher.
What was measured:
Test in all cases: NCI anticancer screen, dose series, 48 h
KM12 = tested on: KM12
SN12C = tested on: SN12C
IGROV-1 = tested on: IGROV-1
OVCAR-3 = tested on: OVCAR-3
K562 = tested on: K562
UO-31 = tested on: UO-31
NCI-H226 = tested on: NCI-H226
SK-OV-3 = tested on: SK-OV-3
HCC 2998 = tested on: HCC 2998
MCF7 = tested on: MCF7
MDA-N = tested on: MDA-N
SF-539 = tested on: SF-539
UACC-62 = tested on: UACC-62
NCI-H522 = tested on: NCI-H522
M14 = tested on: M14
CCRF-CEM = tested on: CCRF-CEM
786-0 = tested on: 786-0
Malme-3M = tested on: Malme-3M
HT-29 = tested on: HT-29
NCI/ADR-RES = tested on: NCI/ADR-RES
SK-MEL-28 = tested on: SK-MEL-28
OVCAR-5 = tested on: OVCAR-5
ACHN = tested on: ACHN
HCT-116 = tested on: HCT-116
A498 = tested on: A498
SW-620 = tested on: SW-620
RXF 393 = tested on: RXF 393
MOLT-4 = tested on: MOLT-4
NCI-H460 = tested on: NCI-H460
SK-MEL-5 = tested on: SK-MEL-5
BT-549 = tested on: BT-549
NCI-H23 = tested on: NCI-H23
SR = tested on: SR
DU-145 = tested on: DU-145
HCT-15 = tested on: HCT-15
TK-10 = tested on: TK-10
SF-268 = tested on: SF-268
RPMI-8226 = tested on: RPMI-8226
SNB-75 = tested on: SNB-75
PC-3 = tested on: PC-3
SNB-19 = tested on: SNB-19
UACC-257 = tested on: UACC-257
LOX IMVI = tested on: LOX IMVI
HOP-62 = tested on: HOP-62
COLO 205 = tested on: COLO 205
HOP-92 = tested on: HOP-92
MDA-MB-231 = tested on: MDA-MB-231
HL-60 = tested on: HL-60
Hs-578T = tested on: Hs-578T
A549 = tested on: A549
U-251 = tested on: U-251
T47D = tested on: T47D
SF-295 = tested on: SF-295
CAKI-1 = tested on: CAKI-1
SK-MEL-2 = tested on: SK-MEL-2
OVCAR-4 = tested on: OVCAR-4

Q: What does the source list for `Cc1ccc2nc3n(c2c1)C(c1c(F)cccc1F)SC3` (stereo unspecified)?
A: GI50 (KM12): > 100 µM (inactive); GI50 (SN12C): > 100 µM (inactive); GI50 (IGROV-1): > 100 µM (inactive); GI50 (OVCAR-3): > 100 µM (inactive); GI50 (K562): > 100 µM (inactive); GI50 (UO-31): > 100 µM (inactive); GI50 (NCI-H226): > 100 µM (inactive); GI50 (SK-OV-3): > 100 µM (inactive); GI50 (HCC 2998): > 100 µM (inactive); GI50 (MCF7): 47.1 µM (inactive); GI50 (MDA-N): > 100 µM (inactive); GI50 (SF-539): > 100 µM (inactive); GI50 (UACC-62): > 100 µM (inactive); GI50 (NCI-H522): 55.5 µM (inactive); GI50 (M14): > 100 µM (inactive); GI50 (CCRF-CEM): > 100 µM (inactive); GI50 (786-0): > 100 µM (inactive); GI50 (Malme-3M): > 100 µM (inactive); GI50 (HT-29): > 100 µM (inactive); GI50 (NCI/ADR-RES): > 100 µM (inactive); GI50 (SK-MEL-28): > 100 µM (inactive); GI50 (OVCAR-5): > 100 µM (inactive); GI50 (ACHN): > 100 µM (inactive); GI50 (HCT-116): > 100 µM (inactive); GI50 (A498): > 100 µM (inactive); GI50 (SW-620): > 100 µM (inactive); GI50 (RXF 393): > 100 µM (inactive); GI50 (MOLT-4): 63.8 µM (inactive); GI50 (NCI-H460): > 100 µM (inactive); GI50 (SK-MEL-5): > 100 µM (inactive); GI50 (BT-549): > 100 µM (inactive); GI50 (NCI-H23): > 100 µM (inactive); GI50 (SR): > 100 µM (inactive); GI50 (DU-145): > 100 µM (inactive); GI50 (HCT-15): > 100 µM; GI50 (TK-10): > 100 µM (inactive); GI50 (SF-268): > 100 µM (inactive); GI50 (RPMI-8226): > 100 µM (inactive); GI50 (SNB-75): > 100 µM (inactive); GI50 (PC-3): > 100 µM (inactive); GI50 (SNB-19): > 100 µM (inactive); GI50 (UACC-257): > 100 µM (inactive); GI50 (LOX IMVI): > 100 µM (inactive); GI50 (HOP-62): > 100 µM (inactive); GI50 (COLO 205): > 100 µM (inactive); GI50 (HOP-92): 49.3 µM (inactive); GI50 (MDA-MB-231): > 100 µM (inactive); GI50 (HL-60): 71.6 µM (inactive); GI50 (Hs-578T): > 100 µM (inactive); GI50 (A549): > 100 µM (inactive); GI50 (U-251): > 100 µM (inactive); GI50 (T47D): > 100 µM (inactive); GI50 (SF-295): > 100 µM (inactive); GI50 (CAKI-1): 19.1 µM (inactive); GI50 (SK-MEL-2): > 100 µM (inactive); GI50 (OVCAR-4): > 100 µM (inactive)
